# Reference: US11987807B2, “Isolated human lung progenitor cells and uses thereof” (THE GENERAL HOSPITAL CORPORATION, priority 2012, dated 2024)
# Where two headings read alike, the source gives them in different places.
# B1: Noggin: a BMP4 antagonist (protein, UniProt Q13253 28-232, looked up)
# Noggin: QHYLHIRPAPSDNLPLVDLIEHPDPIFDPKEKDLNETLLRSLLGGHYDPGFMATSPPEDRPGGGGGAAGGAEDLAELDQLLRQRPSGAMPSEIKGLEFSEGLAQGKKQRLSKKLRRKLQMWLWSQTFCPVLYAWNDLGSRFWPRYVKVGSCFSKRSCSVPEGMVCKPSKSVHLTVLRWRCQRRGGQRCGWIPIQYPIISECKCSC
# B2: Activin: a TGFβ agonist (protein, UniProt P08476 311-426, looked up)
# Inhibin beta A chain: GLECDGKVNICCKKQFFVSFKDIGWNDWIIAPSGYHANYCEGECPSHIAGTSGSSLSFHSTVINHYRMRGHSPFANLKSCCVPTKLRPMSMLYYDDGQNIIKKDIQNMIVEECGCS
# modifications: Inhibin beta A chain
# notes: a TGFβ agonist
# B3: BMP7: BMP family member binding type I receptor ALK2 (protein, UniProt P18075 293-431, looked up)
# Bone morphogenetic protein 7: STGSKQRSQNRSKTPKNQEALRMANVAENSSSDQRQACKKHELYVSFRDLGWQDWIIAPEGYAAYYCEGECAFPLNSYMNATNHAIVQTLVHFINPETVPKPCCAPTQLNAISVLYFDDSSNVILKKYRNMVVRACGCH
# Tests used:
# [1] = tested on: mouse ES cell-derived definitive endoderm; test: Anteriorization of mouse ESC-derived definitive endoderm to FoxA2+Sox2+ anterior foregut endoderm; type: cell-based; conditions: for effect on FoxA2+Sox2+ cells: treatment of definitive endoderm at the anteriorization step
# Method: This technology was adapted herein to generate definitive endoderm (DE) from mouse ES cells. […] Next, it was asked if the newly generated DE cells have the competence to generate Nkx2.1+ cells. […] Since the inventors had already incorporated BMP inhibition during DE generation (FIG. 7), the question whether continuous BMP inhibition is necessary for anteriorization or if TGFβ inhibition alone was sufficient for anterior patterning was explored. Endoderm was treated with combinations of Activin (a TGFβ agonist), A-83-01 (a TGFβ antagonist), BMP4, and Dorsomorphin (a BMP4 antagonist) for 2 days (FIG. 2B). The number of FoxA2+Sox2+ anterior endoderm cells was compared to the total number of FoxA2+ endoderm cells (FIG. 2B). The treated cells were further exposed to the BMP4/FGF2/WNT agonist cocktail for another 2 days to examine their competence to generate Nkx2.1+ cells (FIG. 2B). […] It was tested if their inhibition would enhance anteriorization together with a TGFβ inhibitor.
# Mouse Endoderm Anteriorization and Nkx2.1 Cell Differentiation: Mouse definitive endoderm was generated as described herein. To anteriorize endoderm, on and after day 5, the cells were split and re-seeded on to the plates pre-coated with 804G-conditioned medium and fed with DO medium+0.5-1 μM A8301 (CalBiochem, 616454) for 2 days. Then the media was rinsed with DO medium 2 times and switched to DO medium supplemented with 50 ng/ml BMP4, 100 ng/ml FGF2 (GIBCO, PHG0026), and 5-10 nM GSK3iXV for another 2-3 days. To generate Nkx2.1+Sox2+ proximal progenitor cells, the cells were rinsed with DO medium 2 times and switched to DO medium containing RA-supplemented B27, 50 ng/ml BMP7, 50 ng/ml FGF7, 100 nM IWR-1, and 1-2 μM PD98059 for 2 days or longer times.
# Immunofluorescence: At each differentiation step, the cells were fixed with fresh paraformaldehyde (4%) for 15 min at room temperature, rinsed in PBS, washed with PBS+0.2% Triton X-100 and incubated with the primary antibodies at 4° C. overnight (>16 hrs) diluted in PBS+1% BSA. Following incubation, the cells were rinsed 4 times PBS+0.2% Triton X-100, and incubated with secondary antibodies at room temperature for 2 hours. The images were visualized using an Olympus IX71 inverted fluorescence microscope or a Nikon A1 Confocal Laser microscope.
# The secondary antibodies were purchased from Invitrogen (AlexaFluor-549 and AlexaFluor-488). The quantification was performed by counting at least 5 random fields at 20× magnification and calculating the average and standard deviation.
# [2] = tested on: mouse ESC-derived endoderm / anterior foregut endoderm cells; conditions: for NKX2.1 induction: anteriorized endoderm, BMP4 alone, or FGF2 or/and GSK3i without BMP4
# Excerpt: Dorsomorphin inhibits BMP signaling through the SMAD pathway while PD98059 inhibits MAPK signaling.
# A recent report described a monolayer-based strategy using synergistic activation of Nodal and Wnt-β-catenin signaling as well as staged BMP4 inhibition to direct mouse ES cells towards an endoderm fate with high efficiency (Sherwood et al., 2011). This technology was adapted herein to generate definitive endoderm (DE) from mouse ES cells. […] Snoeck and colleagues reported that Noggin (a BMP inhibitor) synergized with SB431542 (a TGFβ inhibitor) to suppress a posterior endoderm fate (Cdx2+) in favor of an anterior endoderm fate (Sox2+) (Green et al., 2011). […] Endoderm was treated with combinations of Activin (a TGFβ agonist), A-83-01 (a TGFβ antagonist), BMP4, and Dorsomorphin (a BMP4 antagonist) for 2 days (FIG. 2B). The number of FoxA2+Sox2+ anterior endoderm cells was compared to the total number of FoxA2+ endoderm cells (FIG. 2B). The treated cells were further exposed to the BMP4/FGF2/WNT agonist cocktail for another 2 days to examine their competence to generate Nkx2.1+ cells (FIG. 2B). […] It was tested if their inhibition would enhance anteriorization together with a TGFβ inhibitor.
# The expression of lung and other anterior cell fate lineage genes including FoxN1 (thymus), Pax8 (thyroid), and Pax9 and Tbx1 (pharyngeal pouch endoderm) was analyzed by real-time qPCR (Figure S4A).
# It was tested if BMP4, FGF2, and WNT signaling are each required to specify lung endoderm from the anterior foregut in an in vitro mouse ESC differentiation system. To do this, anteriorized endoderm cells were exposed to combinations of BMP4, FGF2 and WNT agonists and antagonists (FIGS. 3A and B).
# These complexes translocate to the nucleus and activate expression of target genes (von Bubnoff and Cho, 2001; Chen et al., 2004; Sieber et al., 2009; Miyazono et al., 2010). Besides Smad1/5/8-mediated transcription, BMP-induced receptor complexes can activate the mitogen-activated protein kinase (MAPK) pathway via ERK, […] or p38 (Kozawa et al., 2002).
# (§1) Mouse Endoderm Anteriorization and Nkx2.1 Cell Differentiation: Mouse definitive endoderm was generated as described herein. To anteriorize endoderm, on and after day 5, the cells were split and re-seeded on to the plates pre-coated with 804G-conditioned medium and fed with DO medium+0.5-1 μM A8301 (CalBiochem, 616454) for 2 days.
# [3] = tested on: human Cystic Fibrosis iPSC-derived definitive endoderm cells; test: Anteriorization of human Cystic Fibrosis iPSC-derived definitive endoderm (SOX2 induction); type: cell-based
# Method: FIG. 6 is a schematic depicting an exemplary strategy and time line to generate Nkx2.1+ lung multipotent progenitors from human iPSCs. Data from the experiment indicate a step-wise differentiation of Nkx2.1+ lung progenitors from human iPSCs. A high yield of definitive endoderm from CF1 RiPS cells was obtained after treatment for 4 days in RPMI-1640 media in the presence of 2% B27 supplement, Activin A (100 ng/ml) and 5 μM PI3 Kinase inhibitor LY294002 with more than 90% of cells co-expressing transcription factors SOX17 and FOXA2 (data not shown). Anteriorization of endoderm into foregut endoderm cells was observed by detecting SOX2 expression in Foxa2+ cells derived from CF1 RiPS cells after 4 days of treatment with 500 nM A-83-01 (TGFβ antagonist) and 100 ng/ml Noggin (BMP4 antagonist) (data not shown). NKX2.1 staining was performed after anteriorization to foregut cells at D8 with serum-free medium containing 20 ng/ml BMP4, 20 ng/ml FGF2 and 5 nM GSK3iXV for 4 days (data not shown). […] In addition, confocal images following immunofluorescence staining indicates some Nkx2.1+ sphere contain basal cells positive for p63 (data not shown).
# By using anteriorization conditions similar to Green et al., the induction of SOX2 expression in DE cells was obtained with efficiencies of up to 50%-60% after 4 days of treatment with A-83-01 (a TGFβ antagonist; data not shown). […]
# [4] = tested on: mouse ESC-derived Nkx2.1+ cells; test: Generation of proximal airway progenitors from mouse ESC-derived Nkx2.1+ lung endoderm cells; type: cell-based
# Method: as §1
# [5] = tested on: human iPSC-derived Foxa2+Sox2+ anterior endoderm; test: Chemical screening and differentiation of Nkx2.1+ lung progenitors from human iPSC-derived Foxa2+Sox2+ anterior endoderm; type: cell-based
# Method: In order to increase the efficiency of Nkx2.1+ lung progenitor production, the inventors performed an unbiased high throughput chemical screening on a kinase pathway inhibitor library and an NIH clinical drug library to identify small molecule compounds and FDA-approved clinical drugs that can facilitate NKX2.1-positive lung progenitor differentiation. The platform for chemical screening is illustrated in FIG. 14A. The screening was performed at the step of conversion of Foxa2+Sox2+ anterior endoderm to Nkx2.1+ lung endoderm.
# At least five molecules were identified from the Kinase Compound Set (240 compounds) and at least 6 drugs were identified from the NIH Clinical Collection (400 compounds) that produced statistically significant (more than 3 fold) increases in the percentage of Nkx2.1+ cells (FIG. 14B). These Nkx2.1+ cells have been further stained in separate experiments to exclude the expression of neuronal lineage marker Tuj1 and thyroid lineage marker Pax8. In addition, all positive candidates identified in the primary screen have been assessed for drug duration and dose effects to increase the formation of lung progenitors, and they have been evaluated for other effects including inducing cytotoxicity, and cellular proliferation by Ki67 staining. […] It was also determined that BMP4 is dispensable for human lung progenitor differentiation from iPSCs, indicating a species difference in lung development in human and mouse.
# Several of these negative compounds are MEK1/2 antagonists. […] For example, endoderm-specific deletion of MEK1/2 results in lung agenesis in mice (unpublished data).
# After studying the additive and synergistic effects of the positive hits, a robust and economically efficient new protocol was devised for the generation of a highly enriched population of Nkx2.1+ lung progenitors (up to 85%-90%) from multiple iPS cell lines in xeno-free conditions in order to keep the cells suitable for future clinical applications. This exemplary differentiation medium contains one Wnt agonist (e.g., 0.5 uM CHIR9902), one PI3 kinase inhibitor (e.g., 0.02-0.05 uM PIK-75), one clinically used drug (e.g., 0.02-0.05 uM methotrexate), one BMP antagonist (e.g., 2-4 uM Dorsomorphin) and a single growth factor (e.g., 10-50 ng/ml FGF2). FIG. 12 is the summary of the newly developed step-wise airway progenitor differentiation protocol from iPSC to airway progenitors. Many other protocols can be generated by one of skill in the art from this basic protocol (RPMI+2% B27+10-50 ng/ml FGF2+0.5 uM CHIR9902+2-4 uM Dorsomorphin) together with the compounds listed in FIG. 14.
molecule,measurement,setting,value
Cc1cccc(-c2nn(C(=S)Nc3ccccc3)cc2-c2ccnc3ccccc23)n1 [A-83-01],FoxA2+Sox2+ anterior endoderm (of total FoxA2+ cells),"[1]; TGFβ inhibition, 2 days",40%-55
same,Nkx2.1+ cells (of total cells),"[2]; after 2 days TGFβ inhibition, then BMP4/FGF2/WNT agonist cocktail 2 days",7%-13
same,"induction of SOX2 expression in DE cells, efficiency",[3]; 4 days of treatment,50%-60
COC(=O)c1ccc[cH-]1.O=C1NC(=O)c2c1c1cccnc1c1[n-]c3c(Br)cc(O)cc3c21.[CH+]=O.[Ru] [GSK3i],NKX2.1 induction,[2],not sufficient for NKX2.1 induction
O=C(Nc1cccc2cccnc12)c1ccc(N2C(=O)[C@@H]3[C@H](C2=O)[C@@H]2C=C[C@H]3C2)cc1 [IWR-1],effect on FoxA2+Sox2+ cells,[1],did not increase the FoxA2+Sox2+ population
same,effect on Nkx2.1+Sox2+ cell production,[4]; individual factors removed or replaced in proximal induction medium,most pronounced effect
COc1cccc(-c2cc(=O)c3ccccc3o2)c1N [PD98059],cell death,[2],Significant cell death
same,effect on generation of Nkx2.1+ cells,[2]; added to BMP4 induction (pSmad1/5/8 or MAPKK/ERK inhibition),only partially decreased the Nkx2.1+ cell proportion
same,Nkx2.1+Sox2+ airway progenitor cells (of total number of Nkx2.1+ cells),"[4]; from day 9, 2-3 days, 1%-2% before treatment",up to 18%
CCN(CC)CCCCNc1ncc2cc(-c3cc(OC)cc(OC)c3)c(NC(=O)NC(C)(C)C)nc2n1 [PD173074],cell death,[1]; together with a TGFβ inhibitor at anteriorization,induced cell death
CCCCCCCCCCCCCC(=O)O[C@@H]1[C@@H](C)[C@@]2(O)[C@@H](C=C(CO)C[C@]3(O)C(=O)C(C)=C[C@@H]23)[C@@H]2C(C)(C)[C@]12OC(C)=O [phorbol 12-myristate 13-acetate],NKX2.1+ cell production,[5]; in vitro differentiation systems,stimulates NKX2.1+ cell production
"BMP4: bone morphogenic protein 4, growth factor",neuroectodermal marker Tuj1,[1]; BMP4 present between days 5-7,less neuroectodermal marker Tuj1 was present
same,NKX2.1 induction,[2],could induce NKX2.1 expression
same,requirement for human lung progenitor differentiation from iPSCs,[5],dispensable
same,NKX2.1 expression level,[5]; addition of BMP4,decreases NKX2.1 expression
same,total NKX2.1+ lung progenitor cell number,[5]; addition of BMP4,without affecting the total NKX2.1+ lung progenitor cell number
FGF2: fibroblast growth factor,effect on Nkx2.1+ cells,[2]; added dose of FGF2 despite presumptive endogenous FGF signaling,upregulated Nkx2.1+ cells
same,NKX2.1 induction,[2],not sufficient for NKX2.1 induction
B1,requirement for anteriorization,[3],not necessary
B2,effect on FoxA2+Sox2+ cells,[1],rare FoxA2+Sox2+ cells
same,effect on Nkx2.1+ cells,"[2]; treatment at the anteriorization step, then BMP4/FGF2/WNT agonist cocktail 2 days",few Nkx2.1+ cells
B3,induction of Nkx2.1+ cells from the anterior endoderm compared to BMP4,[2]; BMP7 10 ng/ml,had no effect
same,induction of Nkx2.1+ cells from the anterior endoderm,[2]; increased concentration (>100 ng/ml),still failed to generate Nkx2.1+ cells
